These results are taken from ChEMBL document CHEMBL1136533, “Hemisynthesis and preliminary evaluation of novel endocannabinoid analogues” (Bioorg Med Chem Lett, 2003).

Structures are written as SMILES. Where only a bound is given, the exact number is not on record here.

The target in assay [1] is Cannabinoid receptor 1 (Rattus norvegicus) (UniProt P20272). The assay can be described thus: Percentage affinity towards Cannabinoid receptor 1 using [3H]CP-55940 as radioligand in rat forebrain membranes. The class given is cell membranes. The settings on record: Membrane.
Cannabinoid receptor 1 (Rattus norvegicus), sequence (P20272 whole entry): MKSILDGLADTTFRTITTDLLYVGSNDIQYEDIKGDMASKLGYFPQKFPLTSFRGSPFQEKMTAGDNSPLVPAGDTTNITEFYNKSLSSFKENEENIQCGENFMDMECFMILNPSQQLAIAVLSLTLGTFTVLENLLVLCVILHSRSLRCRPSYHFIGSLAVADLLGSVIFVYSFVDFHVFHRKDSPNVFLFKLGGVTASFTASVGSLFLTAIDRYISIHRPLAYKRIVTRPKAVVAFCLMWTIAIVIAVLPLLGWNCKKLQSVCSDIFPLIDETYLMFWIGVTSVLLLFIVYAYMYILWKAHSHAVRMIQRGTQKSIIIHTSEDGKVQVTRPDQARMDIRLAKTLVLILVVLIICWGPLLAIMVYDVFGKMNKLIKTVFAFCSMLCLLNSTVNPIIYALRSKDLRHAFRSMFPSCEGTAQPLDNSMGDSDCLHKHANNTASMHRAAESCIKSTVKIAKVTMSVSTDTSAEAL
For the next assay, the target named is Cannabinoid receptor 1 (Rattus norvegicus, UniProt P20272). Put plainly: Binding affinity towards Cannabinoid receptor 1 in rat forebrain membranes using [3H]CP-55940 as radioligand. The class given is cell membranes, Membrane.
Cannabinoid receptor 1, sequence (P20272 whole entry): as above
Assay [2] deals with T1, Fatty-acid amide hydrolase 1 (Rattus norvegicus) (UniProt P97612).
T1 sequence (whole entry): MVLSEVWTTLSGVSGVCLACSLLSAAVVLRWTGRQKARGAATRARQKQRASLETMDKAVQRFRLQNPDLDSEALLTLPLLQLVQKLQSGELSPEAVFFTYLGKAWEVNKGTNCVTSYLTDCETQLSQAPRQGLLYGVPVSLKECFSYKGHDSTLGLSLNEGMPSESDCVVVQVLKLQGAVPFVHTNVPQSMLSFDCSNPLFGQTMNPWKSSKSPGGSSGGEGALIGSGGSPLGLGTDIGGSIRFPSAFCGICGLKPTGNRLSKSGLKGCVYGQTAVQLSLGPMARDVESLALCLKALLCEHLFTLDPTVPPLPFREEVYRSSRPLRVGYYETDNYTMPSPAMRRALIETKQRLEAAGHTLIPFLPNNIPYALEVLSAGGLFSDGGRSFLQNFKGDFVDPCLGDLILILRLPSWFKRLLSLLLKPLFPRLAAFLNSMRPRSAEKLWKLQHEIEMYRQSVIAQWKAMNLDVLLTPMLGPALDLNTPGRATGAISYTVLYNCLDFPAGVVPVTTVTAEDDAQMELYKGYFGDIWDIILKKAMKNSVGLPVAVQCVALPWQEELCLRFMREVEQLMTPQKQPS
The assay can be described thus: Inhibitory effect on the Fatty-acid amide hydrolase (FAAH) activity was determined by % inhibition of anandamide hydrolysis at 10 uM concentration of compound. The class given is functional.

The target of assay [3] is T1, Fatty-acid amide hydrolase 1 (Rattus norvegicus). The assay can be described thus: Inhibitory effect on the Fatty-acid amide hydrolase (FAAH) activity was determined by % inhibition of anandamide hydrolysis at 1 uM concentration of compound. The class given is functional.
Assay [4] addresses T2, Fatty-acid amide hydrolase 1 (Rattus norvegicus, UniProt P97612).
T2 sequence (P97612 whole entry): T1 sequence (whole entry)
Put plainly: Binding affinity towards Fatty-acid amide hydrolase (FAAH) in rat forebrain membranes. The class given is cell membranes, Membrane.

In turn, `CCCCC/C=C\C/C=C\C/C=C\C/C=C\CCCC(=O)OCCO` showed an Affinity in assay [1] of 83%. The compound further gave an inhibition constant (Ki) on Cannabinoid receptor 1 above 10 µM. The results for the Inhibition of anandamide hydrolysis in assay [2] and in assay [3] were 70% and 100%, respectively.
Take `CCCCC/C=C\C/C=C\C/C=C\C/C=C\CCCC(=O)CCCO`: the Affinity in assay [1] stood at 38%. In addition, the Ki at Cannabinoid receptor 1 worked out at 0.36 µM. The values for the Inhibition of anandamide hydrolysis in assay [2] and in assay [3] were 78% and 91%, respectively.
As to `CCCCC/C=C\C/C=C\C/C=C\C/C=C\CCCC(=O)NCCO` [ANANDAMIDE], in assay [1], the Affinity came to 19%. This compound registered a Ki in assay [4] of 3 µM.
Regarding `CCCCC/C=C\C/C=C\CCCCCCCC(=O)CCCO`, in assay [1], the Affinity is 72%. Further, the Inhibition of anandamide hydrolysis in assay [2] and in assay [3] was 100% each time.
For the compound `CCCCC/C=C\C/C=C\C/C=C\C/C=C\CCC(C)(C)C(=O)OCCO`, in assay [1], the Affinity is 100%. Besides, the inhibition constant (Ki) at Cannabinoid receptor 1 is above 10 µM; in assay [4] it was 2.1 µM. Moreover, the Inhibition of anandamide hydrolysis stood at 12% in assay [2] and 90% in assay [3].

The term Ki denotes a dissociation constant, usually derived from enzyme kinetics or from competition with a known ligand. A lower Ki goes with tighter binding.
